Assay results published in US8293786B2 (Alltranz Inc., priority 2007, dated 2012).
“Also recorded” adds a separate entry of the source. Structures can show the parent of a compound that is named as a salt.

Tests used:
[1] = test system: human abdominal skin; experiment: In vitro human skin permeation and skin disposition, flow-through diffusion cells (Example 1); assay type: in vitro ADME
Description: Flow through diffusion cells were used for the permeation studies. HEPES-buffered Hanks' balanced salts containing 40% (polyethylene glycol) PEG 400 with gentamicin was used for the receiver compartment. Donor solution was comprised of either 100% propylene glycol (PG) solution or a rubbed in gel formulation. […] Drug accumulation in the skin after a 24 or 36 h diffusion experiment was determined as μmol/g wet tissue weight.
(§1) The skin samples used in the following experiments were obtained from abdominal reduction surgery and dermatomed to a thickness of approximately 200 μm. The skin samples used herein were frozen at −20° C. for less than six months.
1 L of receiver fluid was prepared by measuring 1 L of nanopure water into a graduated cylinder. 90% of the water was added to an Erlenmeyer flask. Hanks' salts (1 bottle) were added to the water along with 5.96 g of HEPES and 0.35 g of sodium bicarbonate. The pH of the solution was adjusted with 1 N sodium hydroxide solution to pH 7.4. The remaining water was added and the receiver fluid was filtered through a 0.2μ filter (Millipore, Billerica, Mass.). 50 mg of gentamicin was added to the filtered receiver fluid and 400 mL of the receiver fluid was removed and replaced with 400 mL of PEG 400.
Two different formulations were used for charging the donor compartment. Drugs were made up in either 100% PG or a gel formulation. For the PG solution, approximately 50-120 mg of the appropriate drug was weighed into a glass silanized culture tube. The gel formulation resulted from the mixing of absolute ethanol, nanopure water, IPM, Carbopol® 980, 0.1 N aqueous sodium hydroxide solution and the respective drug.
Dermatomed skin harvested from abdominoplasty, stored at −20° C., was used for the experiments. A PermeGear flow-through (In-Line, Riegelsville, Pa.) diffusion cell system was used for the skin permeation studies.
(§2) Diffusion cells were kept at 32° C. with a circulating water bath. Human epidermal skin was arranged in the diffusion cell with stratum corneum (upper layer of skin) facing the donor compartment. Permeation area of the skin was 0.95 cm^2. Data was collected from a human skin donor with three to four diffusion cells per treatment.
Receiver solution was HEPES-buffered Hanks' balanced salts with gentamicin containing 40% PEG 400 at a pH of 7.4 and flow rate was adjusted to 0.8 mL/h. Each cell was charged with 0.050 mL of the respective drug formulation (donor solution) or with 0.035 mL of gel formulation which was rubbed into the skin for 15 sec with a Teflon coated rod. The formulation was applied to ensure complete coverage. Diffusion cells were covered with a cap for the duration of the study.
(§3) Samples were collected into scintillation vials in 3 h increments for either 24 h or 36 h. All the samples were stored at 4° C. until extracted. An aliquot (0.5 mL) of the diffusion sample was placed into a silanized HPLC vial and 0.5 mL of acetonitrile was added to the sample, capped and vortexed.
At the end of the experiment, the skin tissue was removed from the diffusion cell, rinsed with nanopure water, and blotted dry with a paper towel. The skin was tape stripped twice using book tape (Scotch™, 3M, St. Paul, Minn.) to remove drug formulation adhering to the tissue surface. The area of skin in contact with the drug was cut out, chopped up and placed in a pre-weighed scintillation vial. Ten mL of acetonitrile was added to the vial and drug was extracted from the skin by shaking at room temperature overnight. The following day a 0.1 mL aliquot was removed and diluted with an additional 0.9 mL of acetonitrile. The diluted sample was added to the silanized HPLC vial for analysis.
At the end of the experiment, a 0.01 mL aliquot of the PG donor solution was removed and added to a scintillation vial containing 10 mL of acetonitrile. The vials were vortexed and then sonicated for 15 min. An aliquot of 1 mL was removed and transferred into a silanized HPLC vial for analysis.

[2] = test system: human abdominal skin; experiment: In vitro human skin permeation and skin disposition, flow-through diffusion cells (Examples 2, 2A, 2B); assay type: in vitro ADME; details: for 24 h cumulative amt / 24 h skin conc / Flux / Lag time / Flux enhancement: 40% aqueous PEG 400 receiver fluid; for Flux enhancement: total cannabidiol versus cannabidiol
Description: Flow through diffusion cells were used for the permeation studies. HEPES-buffered Hanks' balanced salts containing 40% PEG 400 with gentamicin or 40% aqueous PEG 400 with gentamicin were used for the receiver compartment. Donor solution was comprised of 90:8:2 PG:H2O:IPM solution or gel formulation. […] Drug accumulation in the skin after a 24, 30 or 42 h diffusion experiment was determined as μmol/g wet tissue weight.
as §1
One (1) L of receiver fluid was prepared by measuring 1 L of nanopure water into a graduated cylinder. 90% of the water was added to an Erlenmeyer flask. Hanks' salts (1 bottle) were added to the water along with 5.96 g of HEPES and 0.35 g of sodium bicarbonate. The pH of the solution was adjusted with 1 N sodium hydroxide solution to pH 7.4. The remaining water was added and the receiver fluid was filtered through a 0.2μ filter (Millipore, Billerica, Mass.). Fifty (50) mg of gentamicin was added to the filtered receiver fluid and 400 mL of the receiver fluid was removed and replaced with 400 mL of PEG 400.
The receiver fluid was prepared by measuring 600 mL of nanopure H2O into a graduated cylinder. The H2O was filtered through a 0.2μ filter (Millipore, Billerica, Mass.). Fifty (50) mg of gentamicin was added to the filtered H2O and 400 mL of PEG 400 was added.
The prodrugs were made up in a solution of 45:4:1 PG:H2O:IPM. For this solution, the appropriate amount of drug was weighed into a glass silanized culture tube and IPM was added, the 50 μL of PG to coat the drug, then an additional 247 μL PG was added and the donor solution was vortexed again. Finally 26 μL of water was added. The gel formulation resulted from the mixing of absolute ethanol, nanopure water, IPM, Carbopol® 980, 0.1 N sodium hydroxide solution and the respective drug.
The gel formulation was comprised of absolute ethanol, nanopure water, IPM, Carbopol® 980, 0.1 sodium hydroxide solution and respective drug. The anhydrous gel was comprised of absolute ethanol, PEG monoethyl ether 550, Klucel® hydroxypropylcellulose, and respective drug.
Dermatomed skin harvested from abdominoplasty, stored at −20° C., was used for the experiments. A PermeGear flow-through (In-Line, Hellertown, Pa.) diffusion cell system was used for the skin permeation studies.
as §2, with “The permeation” for “Permeation”, “The data” for “Data”, “three” for “three to four”
The receiver solution was HEPES-buffered Hanks' balanced salts with gentamicin containing 40% PEG 400 at a pH of 7.4 or 40% aqueous PEG 400 and flow rate was adjusted to 0.8 mL/h. Each cell was charged with 0.10 mL of the respective drug formulation (donor solution) or 50 μL of gel formulation which was rubbed into the skin for 15 sec with a Teflon coated rod. The formulation was applied to ensure complete coverage. […]. Diffusion cells were covered with a stopper or cap for the duration of the study.
as §3, with “24, 30,” for “24 h”, “42” for “36”
At the end of the experiment, the skin tissue was removed from the diffusion cell, rinsed with nanopure water, and blotted dry with a paper towel. The skin was tape stripped twice using book tape (Scotch™, 3M, St. Paul, Minn.) to remove drug formulation adhering to the tissue surface.

[3] = Table 3, in propylene glycol, prodrug applied
[4] = Table 4, in propylene glycol, prodrug applied
[5] = Table 5, in propylene glycol, prodrug applied
[6] = Table 19, gel formulation, CBD from applied prodrug
[7] = Table 19, gel formulation, as applied compound (CBD or intact prodrug)
[8] = Table 19, gel formulation, prodrug applied, as total cannabidiol equivalents
[9] = Table 21, gel formulation, CBD from applied prodrug
[10] = Table 21, gel formulation, as applied compound (CBD or intact prodrug)
[11] = Table 21, gel formulation, prodrug applied, as total cannabidiol equivalents
[12] = Table 23, gel formulation, CBD from applied prodrug
[13] = in an anhydrous gel formulation

C=C(C)C1CCC(C)=CC1c1c(OC(=O)OCN(CC)CC)cc(CCCCC)cc1OC(=O)OCN(CC)CC (stereo not drawn) [ALL00102]
flux enhancement (in words) ([1]; Example 1): No flux enhancement
form in which the prodrug permeated through the human skin ([1]; Example 1): permeated through the human skin as cannabidiol
found in the skin disposition (tissue) samples ([1]; Example 1): Both cannabidiol and intact prodrug were found
intact prodrug in the diffusion samples (receiver samples) ([1]; Example 1): No intact prodrug was found
total cannabidiol in the skin compared to cannabidiol ([1]; Example 1): higher
24 h cumulative amt [1, 3]: 8.6 ± 6.3 nmol
Flux [1, 3]: 0.6 ± 0.5 nmol/cm^2/h
24 h cumulative amt [1, 4]: 9.1 ± 5.0 nmol
Flux [1, 4]: 0.7 ± 0.3 nmol/cm^2/h
Lag time [1, 4]: 11.0 ± 2.8 h
24 h skin conc ([1]; Table 4, in propylene glycol, prodrug applied, found in skin as CBD): 18.9 ± 9.9 (CBD) μmol/g
24 h skin conc ([1]; Table 4, in propylene glycol, prodrug applied, found in skin as PD (prodrug)): 73.4 ± 35.5 (PD) μmol/g
24 h cumulative amt [1, 5]: 13.7 ± 18.6 nmol
Flux [1, 5]: 0.3 ± 0.1 nmol/cm^2/h
Lag time [1, 5]: 5.1 ± 0.0 h
24 h skin conc ([1]; Table 5, in propylene glycol, prodrug applied, found in skin as PD (prodrug)): 183.1 ± 62.8 (PD) μmol/g
24 h cumulative amt ([1]; Table 9, in gel formulation): 1.1 ± 0.4 nmol
Flux ([1]; Table 9, in gel formulation): 0.05 ± 0.02 nmol/cm^2/h
Lag time ([1]; Table 9, in gel formulation): 1.6 ± 1.6 h
24 h skin conc ([1]; Table 9, in gel formulation, as applied compound (CBD, or PD = intact prodrug)): 22.9 ± 9.3 (PD) μmol/g
24 h skin conc ([1]; Table 9, in gel formulation, prodrug applied, found in skin as CBD): 0.4 ± 0.3 (CBD) μmol/g
24 h skin conc ([1]; Table 10, in propylene glycol, as applied compound (CBD, or PD = intact prodrug)): 31.3 ± 5.5 (PD) μmol/g

C=C(C)[C@@H]1CCC(C)=C[C@H]1c1c(O)cc(CCCCC)cc1OC=O [ALL00146, CBD Formate]
24 h cumulative amt [2, 6]: 10.7 ± 0.5 nmol
24 h skin conc [2, 6]: 0.8 ± 0.1 µmol/g
Flux [2, 6]: 0.8 ± 0.1 nmol/cm^2/h
Lag time [2, 6]: 9.1 ± 0.9 h
24 h cumulative amt [2, 7]: 4.0 ± 0.0 nmol
24 h skin conc [2, 7]: 3.3 ± 0.5 µmol/g
Flux [2, 7]: 0.3 ± 0.0 nmol/cm^2/h
Lag time [2, 7]: 7.0 ± 0.0 h
24 h cumulative amt [2, 8]: 12.7 ± 2.3 nmol
24 h skin conc [2, 8]: 4.1 ± 0.4 µmol/g
Flux [2, 8]: 0.9 ± 0.1 nmol/cm^2/h
Lag time [2, 8]: 8.9 ± 1.1 h
Flux enhancement ([2]; Table 19, gel formulation): 1.09
24 h cumulative amt [2, 9]: 2.7 ± 1.4 nmol
24 h skin conc [2, 9]: 3.7 ± 2.1 µmol/g
Flux [2, 9]: 0.2 ± 0.1 nmol/cm^2/h
Lag time [2, 9]: 9.8 ± 3.7 h
24 h skin conc [2, 10]: 16.0 ± 9.8 µmol/g
24 h cumulative amt [2, 11]: 2.7 ± 1.4 nmol
24 h skin conc [2, 11]: 19.7 ± 11.9 µmol/g
Flux [2, 11]: 0.2 ± 0.1 nmol/cm^2/h
Lag time [2, 11]: 9.8 ± 3.7 h
Flux enhancement ([2]; Table 21, gel formulation): 0.53
24 h cumulative amt [2, 12]: 5.9 nmol
Flux [2, 12]: 0.26 nmol/cm^2/h
Lag time [2, 12]: 0.4 h
detected in the skin as ([2]; in gel formulation): intact prodrug and cannabidiol; also recorded: small amount of cannabidiol with the remaining being prodrug
flux compared to cannabidiol ([2]; in gel formulation): did slightly increase the flux; also recorded: didn't increase the flux

C=C(C)C1CCC(C)=CC1c1c(O)cc(CCCCC)cc1OC(=O)CN(C)C (stereo not drawn) [ALL00148, CBD N,N-dimethylglycinate]
24 h skin conc [2, 6]: 2.4 ± 2.1 µmol/g
24 h cumulative amt [2, 7]: 8.0 ± 1.8 nmol
24 h skin conc [2, 7]: 20.8 ± 21.1 µmol/g
Flux [2, 7]: 0.5 ± 0.1 nmol/cm^2/h
Lag time [2, 7]: 7.6 ± 2.1 h
24 h cumulative amt [2, 8]: 8.0 ± 1.8 nmol
24 h skin conc [2, 8]: 23.2 ± 23.2 µmol/g
Flux [2, 8]: 0.5 ± 0.1 nmol/cm^2/h
Lag time [2, 8]: 7.6 ± 2.1 h
Flux enhancement ([2]; Table 19, gel formulation): 0.63
detected in the skin as ([2]; in gel formulation): mostly intact prodrug and small amounts of cannabidiol
flux compared to cannabidiol ([2]; in gel formulation): did not increase the flux
lag time compared to cannabidiol ([2]; in gel formulation): similar
permeated through the skin as ([2]; in gel formulation): intact prodrug only
total skin concentrations compared to cannabidiol ([2]; in gel formulation): higher

C=C(C)C1CCC(C)=CC1c1c(O)cc(CCCCC)cc1OC(=O)CCN(C)C (stereo not drawn) [ALL00150, CBD 3-(dimethylamino)propionate]
24 h skin conc [2, 9]: 7.9 ± 2.3 µmol/g
24 h skin conc [2, 10]: 47.7 ± 3.0 µmol/g
24 h skin conc [2, 11]: 55.6 ± 5.3 µmol/g
24 h skin conc ([2]; Table 22, anhydrous gel formulation, CBD from applied prodrug): 1.1 ± 0.8 µmol/g
24 h skin conc ([2]; Table 22, anhydrous gel formulation, as applied compound (CBD or intact prodrug)): 5.6 ± 3.1 µmol/g
24 h skin conc ([2]; Table 22, anhydrous gel formulation, prodrug applied, as total cannabidiol equivalents): 6.7 ± 3.8 µmol/g
concentrations in the skin, anhydrous gel formulation compared to the ethanol based gel formulation ([2]; anhydrous gel versus ethanol based gel): much lower
detected in the skin as [2, 13]: ALL00150 and cannabidiol
permeation through the skin [2, 13]: did not permeate through the skin
total skin concentrations compared to cannabidiol [2, 13]: higher
detected in the skin as ([2]; in gel formulation): primarily ALL00150 with a small amount of cannabidiol
permeated through the skin as ([2]; in gel formulation): did not permeate through the skin
total skin concentrations compared to cannabidiol ([2]; in gel formulation): higher
